{
  "source": "paper PMC8178126",
  "about": "“Evaluation of the available cholesterol concentration in the inner leaflet of the plasma membrane of mammalian cells” (Journal of Lipid Research, 2021)",
  "target": "T1, Osh4-Δ1-40 (template of Osh4-Δ1-40(K109A) and eOsh4) (Saccharomyces cerevisiae, UniProt P35844, K109A)",
  "T1 construct": "gene KES1; N-terminal lid (aa 1-40) removed; pET-30a, N- and C-terminal His6 tags (printed for eOsh4), E. coli BL21 RIL codon plus",
  "assay": "SPR (BIACORE X-100, L1 chip, immobilised LUVs, equilibrium Req)",
  "type": "binding",
  "details": "apparent, 20 mM Tris pH 7.4, 0.16 M NaCl, 23 °C",
  "data": [
    {"smiles": "CC(C)CCC[C@@H](C)[C@H]1CC[C@H]2[C@@H]3CC=C4C[C@@H](O)CC[C@]4(C)[C@H]3CC[C@]12C", "note": "[cholesterol]", "values": [
      {"measurement": "Kd", "setting": "protein concentration at half-maximal binding to POPC/POPS/cholesterol 75:20:5 LUVs (Fig. 3D legend 77:20:5)", "value": "100 ± 16", "unit": "nM"}
    ]},
    {"smiles": "C[C@H](CCCC(C)(C)O)[C@H]1CC[C@H]2[C@@H]3CC=C4C[C@@H](O)CC[C@]4(C)[C@H]3CC[C@]12C", "note": "[25-hydroxycholesterol]", "values": [
      {"measurement": "Kd", "setting": "protein concentration at half-maximal binding to POPC/POPS/25HC 75:20:5 LUVs (Fig. 3D legend 77:20:5)", "value": "800 ± 130", "unit": "nM"}
    ]}
  ]
}
